PMC11838007, “Contribution of telacebec to novel drug regimens in a murine tuberculosis model” (Antimicrobial Agents and Chemotherapy, 2024)
Values after ≈ are worked out from the molar mass of the structure shown. Where two headings read alike, the source gives them in different places.

Key:
M. tuberculosis H37Rv [1] = experiment: microbe, parasite or virus in culture; type: cell-based
M. tuberculosis H37Rv [2] = experiment: microbe, parasite or virus in culture; type: cell-based; details: Mycobacterium tuberculosis, read-out: MIC, 7H9 Broth, H37Rv
M. tuberculosis HN878 [3] = experiment: microbe, parasite or virus in culture; type: cell-based
M. tuberculosis HN878 [4] = experiment: microbe, parasite or virus in culture; type: cell-based; remark: listed apart in the source
M. tuberculosis HN878 [5] = experiment: Pyrazinamide susceptibility by MGIT; type: cell-based; details: Mycobacterium tuberculosis, susceptibility determined by MGIT, read-out: MIC, HN878 (7H9 Broth)
M. tuberculosis H37Rv [6] = experiment: Pyrazinamide susceptibility by MGIT; type: cell-based; details: Mycobacterium tuberculosis, susceptibility determined by MGIT, read-out: MIC, H37Rv (7H9 Broth)
M. tuberculosis H37Rv [7] = details: in vivo, 25 mg/kg; cited from earlier work
M. tuberculosis H37Rv [8] = type: in vivo, Mycobacterium tuberculosis
M. tuberculosis = details: phase 2a study; cited from earlier work
[9] = plasma, week 4, Experiment 3, mean ± SD; for Concentration of Telacebec at steady state, 1h: 1 h post-dose; for Concentration of Telacebec at steady state, 5h: 5 h post-dose; for Concentration of Telacebec at steady state, 24h: 24 h post-dose
Description: For S587 and its M3 metabolite, the mean concentrations were compared between mice administered S587 alone and mice administered S587 in combination with T 10 mg/kg (T10), T 50 mg/kg (T50), and T10 plus C. For T, the mean concentrations were compared between mice administered T10 alone and T10 in combination with S587 and S587 + C, as well as between mice administered T50 alone and T50 in combination with S587.
Multidose PK of T and TBAJ-587 in plasma was characterized in infected female BALB/c mice (Charles River Laboratories, Wilmington, MA) receiving oral doses once daily. In week 4 of treatment in Experiment 3, three mice per group per time point were sampled by submandibular bleed at 1, 5, and 24 hours post-dose. Drug concentrations were quantified by a validated high-performance liquid chromatography/mass spectrometry method (Alliance Pharma Inc, Devault, PA).

[10] = Mycobacterium tuberculosis, H37RV; read-out: MIC, 7H11 Agar, H37Rv
[11] = Mycobacterium tuberculosis, HN878; read-out: MIC, 7H11 Agar, HN878
[12] = Mycobacterium tuberculosis, HN878; read-out: MIC, 7H9 Broth, HN878

For `COc1nc2ccc(Br)cc2cc1[C@@H](c1ccccc1)[C@@](O)(CCN(C)C)c1cccc2ccccc12` [Bedaquiline, bedaquiline], the MIC (M. tuberculosis H37Rv [1]; [10]) was 0.03 µg/mL (≈ 0.054 µM), the MIC (M. tuberculosis H37Rv [2]) was 0.25 µg/mL (≈ 0.45 µM) and the MIC (M. tuberculosis HN878 [3]; [11]) was 0.03 µg/mL (≈ 0.054 µM).
Compound `CC(C)/N=c1\cc2n(-c3ccc(Cl)cc3)c3ccccc3nc-2cc1Nc1ccc(Cl)cc1` [Clofazimine, clofazimine] has an MIC (M. tuberculosis H37Rv [1]; [10]) of 0.25 µg/mL (≈ 0.528 µM) and an MIC (M. tuberculosis HN878 [3]; [11]) of 0.25 µg/mL (≈ 0.528 µM).
For `CC(=O)NC[C@H]1CN(c2ccc(N3CCOCC3)c(F)c2)C(=O)O1` [Linezolid, linezolid], the MIC (M. tuberculosis H37Rv [1]; [10]) was 0.5 µg/mL (≈ 1.48 µM), the MIC (M. tuberculosis HN878 [4]; [12]) was 0.5 µg/mL (≈ 1.48 µM) and the MIC (M. tuberculosis H37Rv [2]) was 1 µg/mL (≈ 2.96 µM).
Compound `COc1c(N2C[C@@H]3CCCN[C@@H]3C2)c(F)cc2c(=O)c(C(=O)O)cn(C3CC3)c12` [Moxifloxacin, moxifloxacin] has an MIC (M. tuberculosis HN878 [4]; [12]) of 0.25 µg/mL (≈ 0.623 µM) and an MIC (M. tuberculosis H37Rv [2]) of 0.5 µg/mL (≈ 1.25 µM).
Work on `O=[N+]([O-])c1cn2c(n1)OC[C@@H](OCc1ccc(OC(F)(F)F)cc1)C2` [Pretomanid, pretomanid] yielded an MIC (M. tuberculosis H37Rv [1]; [10]) of 0.06 µg/mL (≈ 0.167 µM), an MIC (M. tuberculosis HN878 [4]; [12]) of 0.06 µg/mL (≈ 0.167 µM) and an MIC (M. tuberculosis H37Rv [2]) of 0.125 µg/mL (≈ 0.348 µM). The MIC (M. tuberculosis HN878 [3]; [11]) was 0.125 µg/mL (≈ 0.348 µM).
With `NC(=O)c1cnccn1` [Pyrazinamide, pyrazinamide] the MIC (M. tuberculosis HN878 [5]) was under 100 µg/mL and the MIC (M. tuberculosis H37Rv [6]) was under 100 µg/mL.
`CO[C@H]1/C=C/O[C@@]2(C)Oc3c(C)c(O)c4c(O)c(c(/C=N/N5CCN(C)CC5)c(O)c4c3C2=O)NC(=O)/C(C)=C\C=C\[C@H](C)[C@H](O)[C@@H](C)[C@@H](O)[C@@H](C)[C@H](OC(C)=O)[C@@H]1C` [Rifampin] showed an MIC (M. tuberculosis HN878 [4]; Mycobacterium tuberculosis, HN878, read-out: MIC, 7H9 Broth, HN878) of 0.25 µg/mL (≈ 0.304 µM) and an MIC (M. tuberculosis H37Rv [2]) of 0.25 µg/mL (≈ 0.304 µM).
`COc1ncnc(Cn2cc(C(=O)NCCO)c3ncc(C)cc32)c1C` [TBA-7371] showed an MIC (M. tuberculosis H37Rv [1]; [10]) of 0.25 µg/mL (≈ 0.703 µM) and an MIC (M. tuberculosis HN878 [3]; [11]) of 0.5 µg/mL (≈ 1.41 µM).
In the case of `COc1cc([C@](O)(CCN(C)C)[C@@H](c2cc3cc(Br)ccc3nc2OC)c2cccc(OC)c2F)cc(OC)n1` [TBAJ-587], the “reduction of lung CFU count over 4 weeks” value (M. tuberculosis H37Rv [7]) is given as “approximately 5 log10”, the MIC (M. tuberculosis H37Rv [1]; Mycobacterium tuberculosis, H37RV, read-out: MIC, 7H11 Agar, H37Rv) is given as 0.008 µg/mL (≈ 0.013 µM) and the “mean (±SD) log10 CFU counts, W4” value (M. tuberculosis H37Rv [8]; in vivo) is given as 3.40 ± 0.47 log10 CFU. For the same compound, the “reduction of bacterial burden over 4 weeks” value (M. tuberculosis H37Rv [8]; in vivo, 12.5 mg/kg) was “more than 4 log10” and the MIC (M. tuberculosis HN878 [3]; Mycobacterium tuberculosis, HN878, read-out: MIC, 7H11 Agar, HN878) was 0.004 µg/mL (≈ 0.00651 µM).
With `COc1cc([C@](O)(CCN(C)C)[C@@H](c2cc3cc(Br)ccc3nc2OC)c2cc(OC)nc(OC)c2OC)cc(OC)n1` [TBAJ-876] the MIC (M. tuberculosis H37Rv [1]; [10]) was 0.002 to 0.004 µg/mL (≈ 0.00304 to 0.00608 µM), the “reduction of CFU counts over 4 weeks compared to D0” value (M. tuberculosis H37Rv [8]; Experiment 2, S876 6.25 mg/kg, 4 weeks) was “more than 3.5 log10” and the “mean (±SD) log10 CFU counts, W4” value (M. tuberculosis H37Rv [8]; Experiment 2, lungs, 4 weeks of treatment, doses mg/kg/dose as subscripts, bid = twice daily, D0 7.51 ± 0.06, lower limit of detection 1.66 log10) was 3.74 ± 0.44 log10 CFU. It also gave an MIC (M. tuberculosis HN878 [3]; [11]) of 0.004 µg/mL (≈ 0.00608 µM).
In the case of `CCc1nc2ccc(Cl)cn2c1C(=O)NCc1ccc(N2CCC(c3ccc(OC(F)(F)F)cc3)CC2)cc1` [Telacebec, telacebec], the “early bactericidal activity in TB patients” value (M. tuberculosis) is listed as “dose-dependent early bactericidal activity”, the MIC (M. tuberculosis H37Rv [1]; Mycobacterium tuberculosis, 432 h; parental H37Rv strain; agar proportion method; […]; read-out: MIC) is listed as 0.008 µg/mL (≈ 0.0144 µM) and the MIC (M. tuberculosis H37Rv [1]; [10]) is listed as 0.008 µg/mL (≈ 0.0144 µM). For the same compound, the “effect of single drug treatment on lung CFU counts compared to D0” value (M. tuberculosis H37Rv [8]; Experiment 3, T at 10 and 50 mg/kg, 4 weeks, no dose-response) was “bacteriostatic”, the “mean (±SD) log10 CFU counts, W4” value (M. tuberculosis H37Rv [8]; Experiment 3, lungs, 4 weeks of treatment, T at 10 mg/kg where given, S587 12.5, C 12.5, Z 150 mg/kg, D0 7.52 ± 0.13) was 7.65 ± 0.05 log10 CFU and the “mean (±SD) log10 CFU counts, W4” value (M. tuberculosis H37Rv [8]; Experiment 3, lungs, 4 weeks of treatment, T at 50 mg/kg, S587 12.5 mg/kg, D0 7.52 ± 0.13) was 7.70 ± 0.06 log10 CFU. The “Concentration of Telacebec at steady state, 1h” value ([9]; T 10 mg/kg) was 1462 ± 435 ng/mL, the “Concentration of Telacebec at steady state, 1h” value ([9]; T 50 mg/kg) was 2642 ± 1857 ng/mL and the “Concentration of Telacebec at steady state, 5h” value ([9]; T 10 mg/kg) was 2265 ± 102 ng/mL. For the same compound, the “Concentration of Telacebec at steady state, 5h” value ([9]; T 50 mg/kg) was 7310 ± 3990 ng/mL, the “Concentration of Telacebec at steady state, 24h” value ([9]; T 10 mg/kg) was 921 ± 337 ng/mL and the “Concentration of Telacebec at steady state, 24h” value ([9]; T 50 mg/kg) was 3008 ± 330 ng/mL. For the same compound, the MIC (M. tuberculosis HN878 [3]; [11]) was 0.002 µg/mL (≈ 0.00359 µM).
